Laboratory results from PubChem BioAssay (NCI).
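Method: 48-hour compound exposure of cells in 96-well plates, five concentrations, linear interpolation of endpoints. Definition used: TGI = concentration required for complete inhibition of growth.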

Tests used:
Assay in all cases: NCI-60 cell line screen, 48 h
CAKI-1 renal = system: CAKI-1 renal
COLO 205 colon = system: COLO 205 colon
SF-268 CNS = system: SF-268 CNS
SNB-75 CNS = system: SNB-75 CNS
SNB-78 CNS = system: SNB-78 CNS
HCT-116 colon = system: HCT-116 colon
SK-OV-3 ovarian = system: SK-OV-3 ovarian
CCRF-CEM leukemia = system: CCRF-CEM leukemia
HOP-62 NSCLC = system: HOP-62 NSCLC
NCI-H460 lung = system: NCI-H460 lung
U251 CNS = system: U251 CNS
HCT-15 colon = system: HCT-15 colon
M19-MEL melanoma = system: M19-MEL melanoma
IGROV1 ovarian = system: IGROV1 ovarian
SW-620 colon = system: SW-620 colon
M14 melanoma = system: M14 melanoma
LOX IMVI melanoma = system: LOX IMVI melanoma
SK-MEL-5 melanoma = system: SK-MEL-5 melanoma
TK-10 renal = system: TK-10 renal
HCC-2998 colon = system: HCC-2998 colon
NCI-H522 lung = system: NCI-H522 lung
OVCAR-5 ovarian = system: OVCAR-5 ovarian
A498 renal = system: A498 renal
A549 NSCLC = system: A549 NSCLC
MALME-3M melanoma = system: MALME-3M melanoma
ACHN renal = system: ACHN renal
UACC-257 melanoma = system: UACC-257 melanoma
HL-60(TB) leukemia = system: HL-60(TB) leukemia
SN12C renal = system: SN12C renal
XF 498 CNS = system: XF 498 CNS
MOLT-4 leukemia = system: MOLT-4 leukemia
NCI-H23 lung = system: NCI-H23 lung
OVCAR-8 ovarian = system: OVCAR-8 ovarian
LXFL 529 NSCLC = system: LXFL 529 NSCLC
UO-31 renal = system: UO-31 renal
HT29 colon = system: HT29 colon
SF-295 CNS = system: SF-295 CNS
RXF 393 renal = system: RXF 393 renal
DLD-1 colon = system: DLD-1 colon
SK-MEL-28 melanoma = system: SK-MEL-28 melanoma
UACC-62 melanoma = system: UACC-62 melanoma
OVCAR-4 ovarian = system: OVCAR-4 ovarian
OVCAR-3 ovarian = system: OVCAR-3 ovarian
SF-539 CNS = system: SF-539 CNS
DMS 114 small cell lung = system: DMS 114 small cell lung
SNB-19 CNS = system: SNB-19 CNS
786-0 renal = system: 786-0 renal
RPMI-8226 leukemia = system: RPMI-8226 leukemia
KM12 colon = system: KM12 colon
HOP-92 NSCLC = system: HOP-92 NSCLC
KM20L2 colon = system: KM20L2 colon
HOP-18 NSCLC = system: HOP-18 NSCLC
SK-MEL-2 melanoma = system: SK-MEL-2 melanoma
NCI-H226 lung = system: NCI-H226 lung
K-562 leukemia = system: K-562 leukemia
EKVX NSCLC = system: EKVX NSCLC
DMS 273 small cell lung = system: DMS 273 small cell lung
SR leukemia = system: SR leukemia

With `CCOP1(=O)C=CC(Cl)=C(C)C1` (configuration not stated) the TGI (CAKI-1 renal) was 23.7 µM, the TGI (COLO 205 colon) was 44.4 µM and the TGI (SF-268 CNS) was 56.9 µM. For the same compound, the TGI (SNB-75 CNS) was 19.9 µM, the TGI (SNB-78 CNS) was 47.5 µM and the TGI (HCT-116 colon) was 44.7 µM. For the same compound, the TGI (SK-OV-3 ovarian) was over 100 µM, the TGI (CCRF-CEM leukemia) was 12 µM and the TGI (HOP-62 NSCLC) was 70 µM. It also gave a TGI (NCI-H460 lung) of 74.3 µM, a TGI (U251 CNS) of 65.3 µM and a TGI (HCT-15 colon) of 30.1 µM. For the same compound, the TGI (M19-MEL melanoma) was over 57.3 µM, the TGI (IGROV1 ovarian) was 55.1 µM and the TGI (SW-620 colon) was 30.4 µM. It also gave a TGI (M14 melanoma) of 29 µM, a TGI (LOX IMVI melanoma) of 39 µM and a TGI (SK-MEL-5 melanoma) of 36.5 µM. It also gave a TGI (TK-10 renal) of 34.2 µM, a TGI (HCC-2998 colon) of 29.6 µM and a TGI (NCI-H522 lung) of 17.3 µM. For the same compound, the TGI (OVCAR-5 ovarian) was 50.2 µM, the TGI (A498 renal) was over 71.1 µM and the TGI (A549 NSCLC) was over 100 µM. The TGI (MALME-3M melanoma) was 29 µM, the TGI (ACHN renal) was 24.8 µM and the TGI (UACC-257 melanoma) was 39.8 µM. For the same compound, the TGI (HL-60(TB) leukemia) was 15.3 µM, the TGI (SN12C renal) was 16.3 µM and the TGI (XF 498 CNS) was 34.3 µM. It also gave a TGI (MOLT-4 leukemia) of 19.9 µM, a TGI (NCI-H23 lung) of 18.1 µM and a TGI (OVCAR-8 ovarian) of 71.6 µM. It also gave a TGI (LXFL 529 NSCLC) of 25.9 µM, a TGI (UO-31 renal) of over 71.5 µM and a TGI (HT29 colon) of 28.5 µM. It also gave a TGI (SF-295 CNS) of over 100 µM, a TGI (RXF 393 renal) of 14.3 µM and a TGI (DLD-1 colon) of 25.4 µM. For the same compound, the TGI (SK-MEL-28 melanoma) was 30.3 µM, the TGI (UACC-62 melanoma) was 32.2 µM and the TGI (OVCAR-4 ovarian) was 30.7 µM. For the same compound, the TGI (OVCAR-3 ovarian) was 35 µM, the TGI (SF-539 CNS) was 43.6 µM and the TGI (DMS 114 small cell lung) was 39.4 µM. For the same compound, the TGI (SNB-19 CNS) was over 100 µM, the TGI (786-0 renal) was 30.6 µM and the TGI (RPMI-8226 leukemia) was over 59.4 µM. It also gave a TGI (KM12 colon) of 33.5 µM, a TGI (HOP-92 NSCLC) of 34.3 µM and a TGI (KM20L2 colon) of 31.8 µM. It also gave a TGI (HOP-18 NSCLC) of 31.2 µM, a TGI (SK-MEL-2 melanoma) of 27.5 µM and a TGI (NCI-H226 lung) of over 100 µM. For the same compound, the TGI (K-562 leukemia) was 20.4 µM and the TGI (EKVX NSCLC) was over 56.8 µM.

`O=C(O)CCCNS(=O)(=O)c1ccccc1` gave a TGI (DMS 273 small cell lung) of over 100 µM, a TGI (CAKI-1 renal) of over 100 µM and a TGI (COLO 205 colon) of over 100 µM. It also gave a TGI (SF-268 CNS) of over 100 µM, a TGI (SNB-75 CNS) of over 100 µM and a TGI (SK-OV-3 ovarian) of over 100 µM. It also gave a TGI (CCRF-CEM leukemia) of over 100 µM, a TGI (NCI-H460 lung) of over 100 µM and a TGI (U251 CNS) of over 100 µM. It also gave a TGI (HCT-15 colon) of over 100 µM, a TGI (M19-MEL melanoma) of over 100 µM and a TGI (IGROV1 ovarian) of over 100 µM. It also gave a TGI (SW-620 colon) of over 100 µM, a TGI (M14 melanoma) of over 100 µM and a TGI (LOX IMVI melanoma) of over 100 µM. It also gave a TGI (SK-MEL-5 melanoma) of over 100 µM, a TGI (TK-10 renal) of over 100 µM and a TGI (HCC-2998 colon) of over 100 µM. It also gave a TGI (NCI-H522 lung) of over 100 µM, a TGI (OVCAR-5 ovarian) of over 100 µM and a TGI (A498 renal) of over 100 µM. It also gave a TGI (A549 NSCLC) of over 100 µM, a TGI (MALME-3M melanoma) of over 100 µM and a TGI (ACHN renal) of over 100 µM. The TGI (UACC-257 melanoma) was over 100 µM, the TGI (HL-60(TB) leukemia) was over 100 µM and the TGI (SN12C renal) was over 100 µM. For the same compound, the TGI (XF 498 CNS) was over 100 µM, the TGI (MOLT-4 leukemia) was over 100 µM and the TGI (NCI-H23 lung) was over 100 µM. For the same compound, the TGI (OVCAR-8 ovarian) was over 100 µM, the TGI (LXFL 529 NSCLC) was over 100 µM and the TGI (UO-31 renal) was over 100 µM. It also gave a TGI (HT29 colon) of over 100 µM, a TGI (SF-295 CNS) of over 100 µM and a TGI (RXF 393 renal) of over 100 µM. The TGI (DLD-1 colon) was over 100 µM, the TGI (SK-MEL-28 melanoma) was over 100 µM and the TGI (UACC-62 melanoma) was over 100 µM. The TGI (OVCAR-4 ovarian) was over 100 µM, the TGI (OVCAR-3 ovarian) was over 100 µM and the TGI (SF-539 CNS) was over 100 µM. For the same compound, the TGI (SNB-19 CNS) was over 100 µM, the TGI (786-0 renal) was over 100 µM and the TGI (RPMI-8226 leukemia) was over 100 µM. For the same compound, the TGI (KM12 colon) was over 100 µM, the TGI (HOP-92 NSCLC) was over 100 µM and the TGI (KM20L2 colon) was over 100 µM. It also gave a TGI (HOP-18 NSCLC) of over 100 µM, a TGI (SK-MEL-2 melanoma) of over 100 µM and a TGI (NCI-H226 lung) of over 100 µM. It also gave a TGI (K-562 leukemia) of over 100 µM and a TGI (EKVX NSCLC) of over 100 µM.

With `NC(=O)NN/C=C(/C=Nc1ccccc1)[N+](=O)[O-]` the TGI (DMS 273 small cell lung) was over 100 µM, the TGI (COLO 205 colon) was over 100 µM and the TGI (SF-268 CNS) was over 100 µM. It also gave a TGI (HCT-116 colon) of over 100 µM, a TGI (SK-OV-3 ovarian) of over 100 µM and a TGI (CCRF-CEM leukemia) of over 100 µM. The TGI (HOP-62 NSCLC) was over 100 µM, the TGI (NCI-H460 lung) was over 100 µM and the TGI (U251 CNS) was over 100 µM. It also gave a TGI (HCT-15 colon) of over 100 µM, a TGI (M19-MEL melanoma) of over 100 µM and a TGI (IGROV1 ovarian) of over 100 µM. The TGI (SW-620 colon) was over 100 µM, the TGI (M14 melanoma) was over 100 µM and the TGI (LOX IMVI melanoma) was over 100 µM. It also gave a TGI (SK-MEL-5 melanoma) of over 100 µM, a TGI (TK-10 renal) of over 100 µM and a TGI (HCC-2998 colon) of over 100 µM. It also gave a TGI (NCI-H522 lung) of over 100 µM, a TGI (A549 NSCLC) of over 100 µM and a TGI (ACHN renal) of over 100 µM. It also gave a TGI (UACC-257 melanoma) of over 100 µM, a TGI (HL-60(TB) leukemia) of over 100 µM and a TGI (SN12C renal) of over 100 µM. The TGI (XF 498 CNS) was over 100 µM, the TGI (SR leukemia) was over 100 µM and the TGI (MOLT-4 leukemia) was over 100 µM. It also gave a TGI (NCI-H23 lung) of over 100 µM, a TGI (OVCAR-8 ovarian) of over 100 µM and a TGI (LXFL 529 NSCLC) of over 100 µM. The TGI (UO-31 renal) was over 100 µM, the TGI (HT29 colon) was over 100 µM and the TGI (SF-295 CNS) was over 100 µM. The TGI (RXF 393 renal) was over 100 µM, the TGI (DLD-1 colon) was over 100 µM and the TGI (SK-MEL-28 melanoma) was over 100 µM. It also gave a TGI (UACC-62 melanoma) of over 100 µM, a TGI (OVCAR-4 ovarian) of over 100 µM and a TGI (OVCAR-3 ovarian) of over 100 µM. For the same compound, the TGI (DMS 114 small cell lung) was over 100 µM, the TGI (SNB-19 CNS) was over 100 µM and the TGI (786-0 renal) was over 100 µM. It also gave a TGI (RPMI-8226 leukemia) of over 100 µM, a TGI (HOP-92 NSCLC) of over 100 µM and a TGI (KM20L2 colon) of over 100 µM. The TGI (HOP-18 NSCLC) was over 100 µM, the TGI (K-562 leukemia) was over 100 µM and the TGI (EKVX NSCLC) was over 100 µM.
